Measured values as given in patent US20190388421A1, “NOVEL COMPOUNDS AND PHARMACEUTICAL COMPOSITIONS THEREOF FOR THE TREATMENT OF FIBROSIS” (Galapagos NV, priority 2016, published 2019).

Experiments:
[1] = molecular target: T1, human GPCR sphingosine 1-phosphate receptor 2 (S1PR2) (Homo sapiens, UniProt O95136); test: S1P2 antagonist assay (Ca2+ flux, S1P at EC80); type: cell-based; conditions: CHO-S1PR2 cells, highest concentration 20 μM
T1 construct: host or cells: CHO
Summary of the method: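 CHO cells stably overexpressing human S1PR2, serum-starved 1 h and loaded with Fluo8 dye, were read for 3 min after compound addition, then stimulated with S1P at EC80 after 15 min at 37 °C. Top concentration 20 μM in a 10-point 1/3 series; Ca2+ fluorescence ratio normalized to vehicle and S1P EC80, giving EC50.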

[2] = molecular target: T2, human GPCR sphingosine 1-phosphate receptor 1 (S1PR1) (Homo sapiens, UniProt P21453); test: S1PR1 selectivity assay (Ca2+ flux, antagonist); type: cell-based; conditions: S1P1 antagonist EC50, CHO cells overexpressing human S1PR1 and Gq protein
T2 construct: host or cells: CHO
Description: (§1) After readout of the agonist activity, the plates are incubated for 15 min at 37° C. and 5% CO2. Then, cells are stimulated with 10 μL Sphingosine-1-Phosphate (S1P) (Avanti Polar lipids-860492P) at its EC80 concentration. Intracellular Ca^2+ changes are immediately measured by reading fluorescence during 3 min (FDSS/μCELL reader). The ratio of the maximal fluorescence over the background fluorescence before compound injection is used to determine compound response.
(§2) For EC50 determination, a 10 point dilution series of compounds starting from 23.3 μM and 20 μM highest final concentration for agonist and antagonist respectively, ⅓ dilution was performed.
(§3) The obtained ratio's for agonist and antagonist readout were normalized versus vehicle and EC100 of S1P as controls for agonist mode and versus vehicle and EC80 of S1P for antagonist mode. From these normalized data EC50 of the compounds are derived.
(§4) To evaluate the selectivity of the compounds for S1PR2 over S1PR1 and S1PR5, a similar assay set up as described above for the S1PR2 calcium flux assays was performed: CHO cells stably overexpressing human GPCR sphingosine 1-phosphate receptor 1 and Gq protein (Euroscreen, FAST-0197A) or overexpressing human GPCR sphingosine 1-phosphate receptor 5 and Gq protein were used (Perkin Elmer, ES-593-A). In case of the S1PR5 assay triggering was done with an S1PR5 specific agonist instead of with S1P (Hobson et al., 2015).

[3] = molecular target: T3, human GPCR sphingosine 1-phosphate receptor 5 (S1PR5) (Homo sapiens, UniProt Q9H228); test: S1PR5 selectivity assay (Ca2+ flux, antagonist, S1PR5 specific agonist trigger); type: cell-based; conditions: S1P5 antagonist EC50, CHO cells overexpressing human S1PR5 and Gq protein
T3 construct: host or cells: CHO
Description: as §1, §2, §3, §4

S1PR2 = molecular target: T4, S1PR2 (Homo sapiens, UniProt O95136); test: GTP-γS binding assay ([35S]GTPγS, S1P at EC80, S1PR2 membranes); type: biochemical; conditions: membranes from stable cell line over expressing S1PR2, read-out: S1PR2 EC
T4 construct: expressed in transfected cells
Summary of the method: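 Compounds tested against S1P at its EC80 on membranes (2.5 μg/well) from a stable S1PR2-overexpressing line, pre-incubated with 1 μM GDP 15 min at 4 °C. Buffer: 20 mM Tris pH 7.5, 10 mM MgCl2, 100 mM NaCl, 0.1% fatty-acid-free BSA, 50 ug/ml saponin. Incubated 4 h at room temperature; [35S]GTPγS binding read by WGA SPA beads.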

HFL-1 cells [4] = test: IL8 assay (S1P induced IL-8 production); type: cell-based; conditions: Homo sapiens, HFL1; S1P (1 μM) induced IL-8, HFL-1 cells, without HSA
Description: (§5) S1P is able to induce cytokines such as IL-8 in a process that is S1PR2 dependent (O'Sullivan et al, 2014; Bruennert et al, 2015). This assay is designed to test inhibitory activity of compounds on S1P induced IL-8 on HFL-1 cells, a human fetal lung fibroblast cell line.
Human Fetal Lung cells (HFL-1) are seeded in 96 well plates in growth medium (F12K+10% heat inactivated FBS+1% Pen/strep). After overnight incubation at 37° C., 5% CO2 cells are refreshed with starvation medium without HSA (F12K+1% FBS+1% Pen/strep). On day three, compounds are added (10 point serial dilution, 30 μM highest concentration, ⅓ dilution, 0.3% DMSO final) and plates are incubated for one hour at 37° C., 5% CO2. Subsequently S1P at 1 μM final concentration is added and plates are incubated for 16 to 24 hours at 37° C., 5% CO2 after which the supernatant was collected. IL-8 levels in the supernatant are determined with the IL-8 ELISA of R&D systems.

HFL-1 cells [5] = test: IL8 assay in the presence of Human Serum Albumin; type: cell-based; conditions: HFL1, S1P (5 μM) induced IL-8, HFL-1 cells, with 2% HSA, read-out: HSA IL8 EC50
Description: as §5
To evaluate the influence of plasma protein binding of Sip as well as compound, the S1P induced IL-8 levels were evaluated in presence of 2% Human Serum Albumin (HSA, equivalent to 40% human serum). By adding 2% HSA, which affects both the activity of the compounds as well as the S1P potency, the physiological condition are reproduced and the shift in potency expected under in vivo serum conditions can be measured.
Human Fetal Lung cells (HFL-1) are seeded in 96 well plates in growth medium (F12K+10% heat inactivated FBS+1% Pen/strep). After overnight incubation at 37° C., 5% CO2 cells are refreshed with starvation medium with HSA (F12K+1% FBS+1% Pen/strep+1.95% HSA). On day three, compounds are added (10 point serial dilution, 30 μM highest concentration, 1/3 dilution, 0.3% DMSO final) and plates are incubated for 1 h at 37° C., 5% CO2. Subsequently S1P at 5 μM final concentration is added and plates are incubated for 16 to 24 h at 37° C., 5% CO2 after which the supernatant was collected. IL-8 levels in the supernatant are determined with the IL-8 ELISA of R&D systems.

T2 sequence (P21453 whole entry): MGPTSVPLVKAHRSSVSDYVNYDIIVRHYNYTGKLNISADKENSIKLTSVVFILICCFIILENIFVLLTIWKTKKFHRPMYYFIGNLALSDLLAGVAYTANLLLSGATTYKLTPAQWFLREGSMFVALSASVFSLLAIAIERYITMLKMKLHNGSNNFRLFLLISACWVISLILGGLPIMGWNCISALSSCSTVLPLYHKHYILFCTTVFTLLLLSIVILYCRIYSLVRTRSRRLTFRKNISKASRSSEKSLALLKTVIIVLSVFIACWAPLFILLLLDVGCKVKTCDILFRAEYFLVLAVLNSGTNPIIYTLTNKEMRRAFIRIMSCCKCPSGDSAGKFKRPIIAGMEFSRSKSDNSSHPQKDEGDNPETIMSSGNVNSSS
T1 sequence (O95136 whole entry): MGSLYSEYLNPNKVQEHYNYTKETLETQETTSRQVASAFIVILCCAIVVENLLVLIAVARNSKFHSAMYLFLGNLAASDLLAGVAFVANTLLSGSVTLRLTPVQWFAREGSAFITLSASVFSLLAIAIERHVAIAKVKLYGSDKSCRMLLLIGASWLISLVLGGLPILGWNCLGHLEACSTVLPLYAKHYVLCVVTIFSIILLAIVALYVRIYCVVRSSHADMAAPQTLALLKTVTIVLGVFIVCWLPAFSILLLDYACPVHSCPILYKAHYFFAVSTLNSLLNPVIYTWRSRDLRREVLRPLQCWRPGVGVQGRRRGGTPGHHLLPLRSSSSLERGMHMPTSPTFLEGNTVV
T4 sequence (O95136 whole entry): as above
T3 sequence (Q9H228 whole entry): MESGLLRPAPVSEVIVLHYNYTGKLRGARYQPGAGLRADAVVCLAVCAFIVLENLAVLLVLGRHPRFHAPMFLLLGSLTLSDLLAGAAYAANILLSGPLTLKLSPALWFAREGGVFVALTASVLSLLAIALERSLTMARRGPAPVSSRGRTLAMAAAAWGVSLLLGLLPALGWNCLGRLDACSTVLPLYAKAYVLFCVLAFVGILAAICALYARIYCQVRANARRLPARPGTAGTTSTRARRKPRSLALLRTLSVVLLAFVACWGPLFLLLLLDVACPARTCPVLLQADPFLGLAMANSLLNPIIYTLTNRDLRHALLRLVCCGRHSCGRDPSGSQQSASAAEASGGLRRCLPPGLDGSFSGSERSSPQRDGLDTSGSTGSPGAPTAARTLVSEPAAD

Compound	EC50 [1] [nM]	EC50 [2] [nM]	EC50 [3] [nM]	EC50 (S1PR2) [nM]	EC50 (HFL-1 cells [4]) [nM]	IC50 (HFL-1 cells [5]) [nM]
CCOc1nc(C)cc(NC(=O)NCc2cc(C)c(-c3cn(C)nc3C(F)(F)F)nn2)c1Cl [Compound 71, 1-(3-chloro-2-ethoxy-6-methyl-4-pyridyl)-3-[[5-methyl-6-[1-methyl-3-(trifluoromethyl)pyrazol-4-yl]pyridazin-3-yl]methyl]urea]	9	6610	6610	25	2	56
Cc1cc(CNC(=O)Nc2cc(Cl)nc(Cl)c2)nnc1-c1cn(C)nc1C(F)(F)F [Compound 21, 1-(2,6-dichloro-4-pyridyl)-3-[[5-methyl-6-[1-methyl-3-(trifluoromethyl)pyrazol-4-yl]pyridazin-3-yl]methyl]urea]	17.3			136	11.3	393
CCOc1nc(C(F)(F)F)cc(NC(=O)NCc2cc(C)c(-c3cn(C)nc3C(F)(F)F)nn2)c1CC [Compound 46, 1-[2-ethoxy-3-ethyl-6-(trifluoromethyl)-4-pyridyl]-3-[[5-methyl-6-[1-methyl-3-(trifluoromethyl)pyrazol-4-yl]pyridazin-3-yl]methyl]urea]	17.2	6610	6610	97	25.6	9950
CCOc1cc(NC(=O)NCc2cc(C)c(-c3cn(C)nc3C(F)(F)F)nn2)cc(Cl)n1 [Compound 2, 1-(2-Chloro-6-ethoxy-pyridin-4-yl)-3-[5-methyl-6-(1-methyl-3-trifluoromethyl-1H-pyrazol-4-yl)-pyridazin-3-ylmethyl]-urea]	8.5	4540	4600	22.4	1.5	25.1
CCOc1nc(C)cc(NC(=O)NCc2cc(C)c(N3C[C@@H](C)O[C@@H](C)C3)nn2)c1Cl [Compound 94, 1-(3-chloro-2-ethoxy-6-methyl-4-pyridyl)-3-[[6-[(2R,6S)-2,6-dimethyl-morpholin-4-yl]-5-methyl-pyridazin-3-yl]methyl]urea]	27		479	509	102	5950
CCOc1ncc(NC(=O)NCc2cc(C)c(N3CC(C)OC(C)C3)nn2)cc1C(F)(F)F (stereo not drawn) [Compound 85, 1-[[6-(2,6-dimethyl-morpholin-4-yl)-5-methyl-pyridazin-3-yl]methyl]-3-[6-ethoxy-5-(trifluoromethyl)-3-pyridyl]urca]	487			3560	427	9950
CCOc1cc(NC(=O)NCc2cc(C)c(-c3cn(CC(C)O)nc3C(F)(F)F)nn2)cc(C(F)(F)F)n1 (stereo not drawn) [Compound 56, 1-[2-ethoxy-6-(trifluoromethyl)-4-pyridyl]-3-[[6-[1-(2-hydroxypropyl)-3-(trifluoromethyl)pyrazol-4-yl]5-methyl-pyridazin-3-yl]methyl]urea]	11.2			129	4.6	98.5
Cc1cc(CNC(=O)Nc2cc(OCC3CC(F)(F)C3)nc(C(F)(F)F)c2)nnc1-c1cn(C)nc1C(F)(F)F [Compound 42, 1-[2-[(3,3-difluorocyclo-butyl)methoxy]-6-(trifluoromethyl)-4-pyridyl]-3-[[5-methyl-6-[1-methyl-3-(trifluoromethyl)pyrazol-4-yl]pyridazin-3-yl]methyl]urea]	292			604	50.9	1240
Cc1cc(CNC(=O)Nc2cc(Cl)nc(OCCF)c2)nnc1-c1cn(C)nc1C(F)(F)F [Compound 16, 1-[2-chloro-6-(2-fluoroethoxy)-4-pyridyl]-3-[[5-methyl-6-[1-methyl-3-(trifluoromethyl)pyrazol-4-yl]pyridazin-3-yl]methyl]urea]	10.8			62.9	4.6	74.9

More lines, in order of falling EC50 [1], values ahead:

EC50 [1] [nM]	EC50 [2] [nM]	EC50 [3] [nM]	EC50 (S1PR2) [nM]	EC50 (HFL-1 cells [4]) [nM]	IC50 (HFL-1 cells [5]) [nM]	Compound
1050		6610	2170	753	2200	CCOc1cc(NC(=O)NCc2cc(C)c(N3C[C@@H](C)O[C@@H](C)C3)nn2)cc(C)n1 [Compound 93, 1-[[6-[(2R,6S)-2,6-dimethyl-morpholin-4-yl]-5-methyl-pyridazin-3-yl]methyl]-3-(2-ethoxy-6-methyl-4-pyridyl)urca]
546	≥ 19800	≥ 19800	2130	439	7040	Cc1cc(NC(=NC#N)NCc2cc(C)c(-c3cn(C)nc3C(F)(F)F)nn2)c(C)c(OCC(F)F)n1 [Compound 79, 2-cyano-1-[2-(2,2-difluoroethoxy)-3,6-dimethyl-4-pyridyl]-3-[[5-methyl-6-[1-methyl-3-(trifluoromethyl)pyrazol-4-yl]pyridazin-3-yl]methyl]guanidine]
84	≥ 19800		160	51	256	Cc1cc(CNC(=O)Nc2cc(C(F)(F)F)nc(OCCO)c2C)nnc1-c1cn(C)nc1C(F)(F)F [Compound 73, 1-[2-(2-hydroxyethoxy)-3-methyl-6-(trifluoromethyl)-4-pyridyl]-3-[[5-methyl-6-[1-methyl-3-(trifluoromethyl)pyrazol-4-yl]pyridazin-3-yl]methyl]urea]
81			274	62	1800	Cc1cc(CNC(=O)Nc2cc(Cl)nc(OCC(F)F)c2)nnc1N1CCOC(CN(C)C)C1 (stereo not drawn) [Compound 97, 1-[2-chloro-6-(2,2-difluoroethoxy)-4-pyridyl]-3-[[6-[2-[(dimethylamino)methyl]morpholin-4-yl]-5-methyl-pyridazin-3-yl]methyl]urea]
25.4	≥ 19800		111	153	3460	CCOc1cc(NC(=O)NCc2cc(C)c(-c3cn(C)nc3C)nn2)cc(Cl)n1 [Compound 68]
11			160	66	30000	CCOc1cc(NC(=O)NCc2cc(C)c(N3CC(F)(F)C3)nn2)cc(Cl)n1 [Compound 83, 1-(2-Chloro-6-ethoxy-pyridin-4-yl)-3-[6-(3,3-difluoro-azetidin-1-yl)-5-methyl-pyridazin-3-ylmethyl]-urea]
